From publication PMC9727182, “Identification of pharmacokinetic markers for safflower injection using a combination of system pharmacology, multicomponent pharmacokinetics, and quantitative proteomics study” (Frontiers in Pharmacology, 2022)
Values joined by “and” are separate entries in the source; they are usually repeats but may differ in a detail not shown here. Equal entries are not always repeated. One block for each compound: values may come before it.

Columns and labels:
[1] = Multicomponent pharmacokinetics in rat plasma after i.v. safflower injection (SI); settings: for AUC(0-inf) / AUC(0-t) / Cmax / MRT inf / MRT last / Vd / clearance / half-life: male, Sprague-Dawley, rat, iv; for detected mean maximum plasma concentration: rats, after administration of 4 ml/kg of SI
Method: The animal experiments were approved by the Animal Care and Use Committee of the College of Animal Science (College of Bee Science), Fujian Agriculture and Forestry University (Approval Number: PZCASFAFU21012). 250 ± 20 g of male Sprague-Dawley (SD) rats were provided by Lab Animal Center in Fujian Medical University (Fuzhou, China).
Ten rats were divided into three groups (Low dose group, n = 4; medium and high groups, n = 3, respectively). […] For each rat, 2 ml of physiological saline was supplemented after 30 min sampling via intraperitoneal injection. The plasma samples were obtained by centrifugation at 3,000 rpm for 10 min and stored at −20°C until analysis.
Clear supernatant (5 μl) was injected into HPLC-MS for bioanalysis.
The sample was separated on a RD-C18 column (4.6 mm × 50 mm, 3.5 μm, Zhongpu Develop, China). The mobile phase incudes water with 0.1% acetic acid (A) and acetonitrile (B). […] The column temperature, flow rate and injection volume were set at 30°C, 0.5 ml/min and 5 μl, respectively.
Non-compartmental model was used to calculate the PK parameters by DAS 3.0 software (Chinese Pharmacologic Society, Beijing, China). A single-tailed t-test was carried out in the study.

[2] = tested on: H9c2 cardiomyocytes injured by H2O2; assay: Protection of cardiomyocytes injured by H2O2 (MTT); format: cell-based; settings: for cell viability vs. model group: pretreated 24 h, 250 μM H2O2 2 h
Method: H9c2 cardiomyocytes obtained from Cell Bank of the Chinese Academy of Sciences (Shanghai, China) were cultured in DMEM (high glucose) supplemented with 1% P/S and 15% FBS in 5% CO2 at 37°C. The cells were collected with 0.25% trypsin, followed by re-seeding in 96-well multiplates with a density of 5×10^3 cells per well. The cell experiments were grouped as follows: normal group, model group (H2O2), administration groups and positive control groups (N-Acetyl-L-cysteine, NAC). […] After that, cells were incubated with 0.5 mg/ml of MTT for 4 h under standard condition, followed by addition of 150 µl DMSO into every well. The cell supernatants were finally removed and the optical density (OD) was recorded at 570 nm using a microplate reader (Thermo Fisher Scientific, United States). The protection rate of the compounds on H9c2 cardiomyocytes was calculated as (OD valueadministration group (or NAC group)-OD valuemodel group)/(OD valuenormal group-OD valuemodel group) ×100%.

[3] = tested on: H9c2 cardiomyocytes injured by H2O2; assay: TMT quantitative proteomics of H2O2-injured cardiomyocytes; format: cell-based; settings: 168 μM
Method: The procedures for cell culture, group and administration are similar to those in “2.7. […] Briefly, the difference is that H9c2 cells were seeded and cultured in a culture flask with a bottom area of 25 cm^2 with a density 1×10^5 cells/ml. After treatment, about 3×10^7 cells per group were collected for the next quantitative proteomics investigation, which was done by Jingjie PTM Biolabs (Hangzhou, China). All the procedures for quantitative proteomics can be found in the section of “5. Quantitative proteomics” of the Supplementary Material.
The quantitative proteomics study was carried out according to our previous report ([Li et al., 2022]). Relative quantitative values of proteins in two samples were compared via t-test. […] The identified difference proteins between groups were subjected further to principal component analysis (PCA). […] The subcellular structure location was analyzed using these proteins as objectives.

[4] = Stability of 6 compounds of SI in rat plasma; settings: for 10h in auto-sampler vials RE: extracted rat plasma; for 6h at room temperature RE / Freeze-thaw stability (three cycles) RE / Long-term stability (-80℃,15 days) RE: rat plasma
Excerpt: The LC-MS method was validated by linearity, limits of detection (LOD), limits of quantification (LOQ), precision, accuracy, extraction recovery, matrix effect and stability of the 6 ingredients in rat plasma. Calibration curves were plotted using weighted linear regression of the peak area ratio of analyte to the IS against the corresponding nominal concentration of the analyte. LOD and LOQ were defined as the detectable concentration at which the ratio of signal to noise was more than 3 and 10, respectively. Intra- and inter-day accuracy and precision were assessed by detecting quality control (QC) samples using five replicates of rat samples at three concentration levels on one or three validation days, respectively. Accuracy and precision were expressed by relative error (RE) and relative standard deviation (RSD), respectively. The extraction recovery and matrix effect of the 6 components at above-mentioned three concentration levels were determined. Stability was assessed under the condition of placing un-treated plasma samples at room temperature for 6 h, and extracted plasma samples in auto-sampler for 10 h, as well as placing plasma samples within freeze-thaw three cycles and at −80 °C for 15 days.

[5] = Stability in diluted SI at room temperature; settings: analyzed at 0, 2, 4, 8, 12, 24, and 48 h
[6] = 1 h after administration (2 ml/kg of SI), preliminary test

SMILES: COc1cc(/C=C/CO)cc(OC)c1O[C@@H]1O[C@H](CO)[C@@H](O)[C@H](O)[C@H]1O [SYR, syringin]
detection in rat plasma [1, 6]: can be detected
systematic exposure of SYR lower than that of HSYA ([1]; after administration of SI): over 10 times
AUC(0-inf) ([1]; in vivo, 1 ml/kg): 116 ± 70.5 ng·h/mL
AUC(0-t) ([1]; in vivo, 1 ml/kg): 101 ± 57.4 ng·h/mL
Cmax ([1]; in vivo, 1 ml/kg): 260 ± 59.4 ng/mL
MRT inf ([1]; in vivo, 1 ml/kg): 22.8 ± 9.6 min
MRT last ([1]; in vivo, 1 ml/kg): 16.2 ± 6 min
Vd ([1]; in vivo, 1 ml/kg): 0.21 ± 0.07 L/kg
clearance ([1]; in vivo, 1 ml/kg): 11.5 mL/min/kg
half-life ([1]; in vivo, 1 ml/kg): 15 ± 5.4 min
AUC(0-inf) ([1]; in vivo, 2 ml/kg): 368 ± 78.7 ng·h/mL
AUC(0-t) ([1]; in vivo, 2 ml/kg): 363 ± 81.5 ng·h/mL
Cmax ([1]; in vivo, 2 ml/kg): 465 ± 42.9 ng/mL
MRT inf ([1]; in vivo, 2 ml/kg): 45 ± 8.4 min
MRT last ([1]; in vivo, 2 ml/kg): 41.4 ± 4.2 min
Vd ([1]; in vivo, 2 ml/kg): 0.31 ± 0.2 L/kg
clearance ([1]; in vivo, 2 ml/kg): 5.67 mL/min/kg
half-life ([1]; in vivo, 2 ml/kg): 36.6 ± 15 min
AUC(0-inf) ([1]; in vivo, 4 ml/kg): 592 ± 96.6 ng·h/mL
AUC(0-t) ([1]; in vivo, 4 ml/kg): 586 ± 94.4 ng·h/mL
Cmax ([1]; in vivo, 4 ml/kg): 925 ± 38.5 ng/mL
MRT inf ([1]; in vivo, 4 ml/kg): 42.6 ± 13.8 min
MRT last ([1]; in vivo, 4 ml/kg): 40.2 ± 12.6 min
Vd ([1]; in vivo, 4 ml/kg): 0.31 ± 0.11 L/kg
clearance ([1]; in vivo, 4 ml/kg): 6.83 mL/min/kg
half-life ([1]; in vivo, 4 ml/kg): 31.8 ± 13.8 min
detected mean maximum plasma concentration [1]: 0.93 μg/mL and 2.5 μM
cell viability vs. model group ([2]; 5 μM): higher cell viability than the model group
cell viability vs. model group ([2]; 10 μM): higher cell viability than the model group
anti-H2O2 injury effect (protection rate) ([2]; 1, 5 and 10 μM): concentration-dependent
proteins downregulated vs. M group ([3]; fold change ≤1/1.5, p <0.05): 231 proteins
proteins upregulated vs. M group ([3]; fold change ≥1.5, p <0.05): 131 proteins
KEGG pathway regulation ([3]; vs. M group): downregulated the ribosome pathway and upregulated the lysosome pathway
changed protein expression located at the cytoplasm ([3]; vs. M group): 42.54%
changed protein expression located at the nucleus ([3]; vs. M group): 30.39%
10h in auto-sampler vials RE ([4]; spiked 40 ng/mL): -12.50%
10h in auto-sampler vials RE ([4]; spiked 400 ng/mL): 1.61%
10h in auto-sampler vials RE ([4]; spiked 10000 ng/mL): 1.41%
6h at room temperature RE ([4]; spiked 40 ng/mL): -2.50%
Freeze-thaw stability (three cycles) RE ([4]; spiked 40 ng/mL): 1.50%
Long-term stability (-80℃,15 days) RE ([4]; spiked 40 ng/mL): -9.50%
6h at room temperature RE ([4]; spiked 400 ng/mL): 3.65%
Freeze-thaw stability (three cycles) RE ([4]; spiked 400 ng/mL): 2.65%
Long-term stability (-80℃,15 days) RE ([4]; spiked 400 ng/mL): 0.30%
6h at room temperature RE ([4]; spiked 10000 ng/mL): 1.55%
Freeze-thaw stability (three cycles) RE ([4]; spiked 10000 ng/mL): 2.30%
Long-term stability (-80℃,15 days) RE ([4]; spiked 10000 ng/mL): 0.98%
Stability RSD [5]: 2.76%

detection in rat plasma [1, 6]: can be detected
detection in rat plasma ([1]; behind 15 min after i.v. low dose administration (1 ml/kg of SI)): can’t be detected
AUC(0-inf) ([1]; plasma, 2 ml/kg): 23.4 ± 5.21 ng·h/mL
AUC(0-t) ([1]; plasma, 2 ml/kg): 20.1 ± 4.4 ng·h/mL
Cmax ([1]; plasma, 2 ml/kg): 44.7 ± 5.13 ng/mL
MRT inf ([1]; plasma, 2 ml/kg): 40.2 ± 6.6 min
MRT last ([1]; plasma, 2 ml/kg): 25.8 ± 2.4 min
Vd ([1]; plasma, 2 ml/kg): 0.35 ± 0.04 L/kg
clearance ([1]; plasma, 2 ml/kg): 8.83 mL/min/kg
half-life ([1]; plasma, 2 ml/kg): 28.8 ± 6.6 min
AUC(0-inf) ([1]; plasma, 4 ml/kg): 44 ± 45.2 ng·h/mL
AUC(0-t) ([1]; plasma, 4 ml/kg): 35.2 ± 31.1 ng·h/mL
Cmax ([1]; plasma, 4 ml/kg): 74.3 ± 2.52 ng/mL
MRT inf ([1]; plasma, 4 ml/kg): 31.8 ± 31.8 min
MRT last ([1]; plasma, 4 ml/kg): 19.2 ± 15 min
Vd ([1]; plasma, 4 ml/kg): 0.34 ± 0.09 L/kg
clearance ([1]; plasma, 4 ml/kg): 16.5 mL/min/kg
half-life ([1]; plasma, 4 ml/kg): 23.4 ± 21 min
detected mean maximum plasma concentration [1]: 0.074 μg/mL and 0.61 μM
10h in auto-sampler vials RE ([4]; spiked 40 ng/mL): -2.50%
10h in auto-sampler vials RE ([4]; spiked 400 ng/mL): 0.63%
10h in auto-sampler vials RE ([4]; spiked 10000 ng/mL): 4.23%
Freeze-thaw stability (three cycles) RE ([4]; spiked 40 ng/mL): 1.00%
Long-term stability (-80℃,15 days) RE ([4]; spiked 40 ng/mL): 14.50%
6h at room temperature RE ([4]; spiked 400 ng/mL): -3.70%
Freeze-thaw stability (three cycles) RE ([4]; spiked 400 ng/mL): 4.05%
Long-term stability (-80℃,15 days) RE ([4]; spiked 400 ng/mL): 0.45%
6h at room temperature RE ([4]; spiked 10000 ng/mL): -3.91%
Freeze-thaw stability (three cycles) RE ([4]; spiked 10000 ng/mL): -3.10%
Long-term stability (-80℃,15 days) RE ([4]; spiked 10000 ng/mL): 3.02%
Stability RSD [5]: 4.11%
SMILES: O=Cc1ccc(O)cc1 [p-HBA, p-hydroxybenzaldehyde]
protection ([2]; 0.61 μM, preliminary test at maximum detected plasma concentration): absence of protection
